Data: patent US20240082238A1, “COMPOSITIONS AND METHODS FOR TREATING CANCER” (UNIVERSITY OF IOWA RESEARCH FOUNDATION, priority 2021, published 2024)
“And” between values parts separate entries of the source, which are not always exact repeats. Identical values can stand only once. Like-named read-outs stand apart in the source and are kept apart here.

Legend:
Format in all cases: cell-based, human
Hec50co cells [1] = test: Cytotoxicity assay (MTS), Hec50co cells; conditions: 72 h; for IC50: Homo sapiens
Experimental: Cytotoxicity assay. Hec50co cells were seeded at 1500 cells per well in 96-well plates for 24 h in a complete medium. Later, the medium was removed and PTX, CIP2b, or CIP (all dissolved in DMSO and diluted in complete medium) were added to cells as either monotherapies or in combinations, and the plates were incubated for 72 hours. Then, the complete medium was removed and MTS reagent in the complete medium was added to wells, and the plates were incubated for 1-4 hours according to the manufacturer's protocol. Finally, the absorbance was recorded at 490 nm using a Spectra Max plus 384 Microplate Spectrophotometer (Molecular Devices, Sunnyvale, CA). Percentage cell viability was expressed as the average absorbance of the test group relative to that of the control group (untreated cells). The concentration that inhibits proliferation of 50% of cells compared to control (IC50) was calculated using GraphPad Prism (La Jolla, CA). Synergism was detected following the Chou-Talalay method (CI<1 indicates synergism) (Chou T C. Cancer research. 2010; 70(2):440-6, doi: 10.1158/0008-5472.CAN-09-1947) using CompuSyn software (Ver. 1.0). […]

Hec50co cells [2] = test: Cell cycle assay (PI flow cytometry); conditions: 24 h
Experimental: Cell Cycle assay. Hec50co cells were seeded at […] cells per well in 6-well plates for 48 h in complete medium. The medium was then removed and replaced with PTX (1, 5, and 10 nM), CIP2b (10 μM), combinations of PTX with CIP2b, or with a fresh complete medium. Cells were incubated with the treatments for 24 h, then the medium was removed, and the cells were washed twice with Dulbecco's Phosphate-Buffered Saline (DPBS 1×, ThermoFisher Scientific), trypsinized (0.4 mL/well), and collected by centrifugation (230 xg, 5 min). Cells were then fixed using 70% ethanol stored at 4° C. for 30 min, then incubated with 100 μg/mL RNase A in 2% v/v NP-40 Surfact-Amps® solution (0.5 mL/sample) for 30 min at 37° C. Then, PI (50 μg/mL, 0.5 mL/sample) was added prior to analysis by flow cytometry (FACScan, BD Biosciences) using CellQuest software (Ver. 3.3). The data were further analyzed by ModFit LT (Ver. 5.0) to calculate the percent of cells in each phase of the cell cycle (i.e., G0/G1, S, G2/M).
(§1) In vitro activity of CIP2b NPs. […] An equivalent quantity of blank NPs was also tested to account for the effect of the PLGA NPs alone without CIP2b. […] An equivalent quantity of blank NPs was also added, either alone or with PTX-OG. Samples were then analyzed using a flow cytometer, as described above.

Hec50co cells [3] = test: Intracellular accumulation of PTX-OG (flow cytometry, confocal microscopy); conditions: 400 nM PTX-OG alone, 2 h
Experimental: Intracellular accumulation of PTX using flow cytometer. To evaluate PTX cellular accumulation in the presence or absence of CIP2b, Hec50co cells were seeded at a density of 200,000 cells per well in 6-well plates in complete medium and incubated for 24 h. Afterward, the medium was removed, and a DMSO-based solution (0.1 mg/mL) of fluorescently labeled PTX (PTX-OG) was added at 400 nM per well, and the volume was completed to 2 mL with the medium. Also, CIP2b (in DMSO) was added at 4 or 40 μM, either alone or in combination with PTX-OG. After 2 h, the medium was removed, the cells were washed thoroughly with DPBS, trypsinized, and collected by centrifugation (230 xg, 5 min). Finally, cells were analyzed by flow cytometry (FACScan).
Intracellular accumulation of PTX using confocal microscopy. Intracellular accumulation of PTX co-delivered with CIP2b was also studied qualitatively in Hec50co cells using confocal microscopy. […]
as §1

## CC(=O)O[C@H]1C(=O)[C@@]2(C)[C@H]([C@H](OC(=O)c3ccccc3)[C@]3(O)C[C@H](OC(=O)[C@H](O)[C@@H](NC(=O)c4ccccc4)c4ccccc4)C(C)=C1C3(C)C)[C@]1(OC(C)=O)CO[C@@H]1C[C@@H]2O [PTX, paclitaxel]
Hec50co cells [1]; 0.1 nM PTX alone
  survival: 100%
Hec50co cells [1]; 5 nM PTX as single compound
  cell survival: about 80%
Hec50co cells [1]; 10 μM CIP2b added, read-out: IC50 value of PTX
  IC50: 3.1 nM
Hec50co cells [1]; 25 μM CIP2b added, read-out: IC50 value of PTX
  IC50: 2.15 nM
Hec50co cells [1]; PTX alone
  IC50: 8.77 nM
Hec50co cells [2]; 5 nM PTX
  cell population at the G2/M phase: approximately 46%
Hec50co cells [2]; 10 nM PTX
  cell population at the G2/M phase: ~70% and 69.5%
Hec50co cells [3]
  cellular uptake of PTX-OG: readily taken up
